# Counter-ions that a name gives are not always drawn.
# How the values were obtained:
# [1] = Dynamic Vapour Sorption (DVS) hygroscopicity; type: physicochemical; details: for DVS mass uptake at 90% RH: 25° C., uptake from input material; for Hygroscopicity: DVS
# Method: Dynamic Vapour Sorption (DVS). Approximately, 10 mg of sample was placed into a mesh vapour sorption balance pan and loaded into a DVS-1 or DVS Advantage dynamic vapour sorption balance by Surface Measurement Systems. The sample was subjected to a ramping profile from 40-90% relative humidity (RH) at 10% increments, maintaining the sample at each step until a stable weight had been achieved (dm/dt 0.004%, minimum step length 30 minutes, maximum step length 500 minutes) at 25° C. After completion of the sorption cycle, the sample was dried using the same procedure to 0% RH and then a second sorption cycle back to 40% RH. Two cycles were performed. The weight change during the sorption/desorption cycles were plotted, allowing for the hygroscopic nature of the sample to be determined. XRPD analysis was then carried out on any solid retained.
# [2] = Pattern stability screen of potential salts (40° C./75% RH, XRPD); type: physicochemical
# Method: XRPD analysis was carried out on a PANalytical X'pert pro, scanning the samples between 3 and 35° 20. The material was gently compressed and loaded onto a multi-well plate with Kapton or Mylar polymer film to support the sample.
# Primary Salt Screening. […] The solvent systems shown in Table were selected for salt screening. For sulfonic acids MEK was used instead of methanol and acetone:water 50:50 (v/v) was used instead of IPA:water to avoid any potential genotoxic impurities. Ca. […] If the acid was insoluble in the selected solvent, a slurry was used. If the acid was a liquid it was added to the API slurry from a stock solution in the allocated solvent. The mixtures of API/counterion/solvent were temperature cycled between ambient and 40° C. in 4 hour cycles for ca. 3 days. Any solids present were isolated and allowed to dry at ambient conditions, for ca. 30 minutes prior to analysis by XRPD. Where solutions were obtained they were evaporated to obtain solid material.
# [3] = 7 day stability testing of salts (40° C./75% RH, 80° C., ambient light; HPLC purity, XRPD); type: physicochemical; details: listed as HCl salt
# Method: High Performance Liquid Chromatography-Ultraviolet Detection (HPLC-UV): Instrument: Dionex Ultimate 3000; Column: Acquity CSH C18 100 mm×2.1 mm 1.7 μm; Column Temperature: 50° C.; Autosampler Temperature: Ambient; UV wavelength: 210 nm; Injection Volume: 4 μL; Flow Rate: 0.6 mL/min; Mobile Phase A: 0.1% formic acid in water; Mobile Phase B: 0.1% formic acid in acetonitrile. The HPLC method used the gradient in Table 2.
# FT-IR appeared to be consistent with the structure. […] The material was physically stable to changes in temperature and humidity when stored for one week.
# A new, poorly crystalline pattern was produced when stored at 40° C./75% RH—Pattern 4.
# Purity of these materials remained unchanged (as shown in Table) apart from the sample stored at ambient light, where a 0.5% drop in purity was observed.
# [4] = Disproportionation/hydration studies (pH, XRPD pattern); type: physicochemical; details: for pH Pre-Agitation: listed as HCl salt
# Excerpt: No XRPD data could be compiled on the hydration or disproportionation of the salt due to the high solubility in water and acetone/water mixtures.
# The salt only remained Pattern 1 at 0.3 aw. New patterns 6 and 7 are likely hydrated due to the high water activity conditions for production.
# [5] = Aqueous solubility assessment of salts; type: physicochemical
# Water pH titration = type: physicochemical; details: 2 mg/mL Nintedanib slurry HCl sample
# [6] = Citrate buffer formulation; type: physicochemical
# [7] = 0.5 mg/mL solubility assessment (filtered/unfiltered); type: physicochemical; details: 0.5 mg/mL experiment; for pH: listed as HCl
# [8] = Solid state and chemical stability of nintedanib HBr and HCl salts through 6 months; type: physicochemical; details: for Weight loss: TGA/DSC
# Excerpt: Table 24 and Table 25 summarize the total impurities (by HPLC), polymorphic form (by X-ray powder diffraction) and, where applicable, weight loss (by TGA/DSC) for both the HCl and HBr salt forms. […] There were no changes in polymorphic form for both salt forms stored at 25 C/60% RH condition.
# [9] = HBr and HCl salts-filter compatibility study; type: physicochemical; details: for visual appearance after filtration: 3% PG solution, glass vials, ambient room condition; for Visual appearance: listed as Nintedanib HCl Salt
# Method: HBr and HCl salts-filter compatibility study: this study was conducted to assess the compatibility of the HBr and the HCl salts with various membrane filters. […] The glass vials were stored at ambient room condition and visual appearance was periodically inspected.
# [10] = Feasibility assessment of ready-to-use nintedanib HBr, HCl and esylate formulations; type: physicochemical; details: NaCl at 10 mM; by itself
# [11] = Inhaled pharmacokinetics of nintedanib salt forms (intratracheal); type: in vivo, C57BL/6 mice; details: female, C57BL/6, mouse, lung, inhaled or intranasal, 1 mg/kg, 1 mg/kg (base equivalent) IT, mice; read-out: lung half-life
# [12] = Water Activity 0.3 (acetone/water)
# [13] = Water Activity 0.6 (acetone/water)
# [14] = Water Activity 0.9 (acetone/water)
# [15] = 0.5 mg/mL citrate buffer experiments, listed as HCl
# [16] = 40° C./75% RH, 2 months, listed as Nintedanib HCl salt
# [17] = 40° C./75% RH, 6 months, listed as Nintedanib HCl salt
compound,measurement,setting,value
COC(=O)c1ccc2c(c1)NC(=O)/C2=C(\Nc1ccc(N(C)C(=O)CN2CCN(C)CC2)cc1)c1ccccc1 [Nintedanib HCl],DVS mass uptake at 90% RH,[1]; listed as HCl,further 2.2% uptake up
same,DVS mass uptake at 90% RH,[1]; listed as HCl salt,ca. 2.2%
same,Hygroscopicity,[1]; listed as HCl,Hygroscopic
same,Hygroscopicity,[1]; listed as HCl salt,hygroscopic
same,Post-DVS XRPD pattern,[1]; listed as HCl,Pattern unchanged
same,Post-DVS XRPD pattern,[1]; listed as HCl salt,remain unchanged
same,XRPD pattern after 72 hrs 40° C./75% RH,[2]; Initial pattern 1,1
same,XRPD pattern after 72 hrs 40° C./75% RH,[2]; Initial pattern 2,2
same,XRPD pattern after 72 hrs 40° C./75% RH,"[2]; Initial pattern 3, listed as HCl",1
same,XRPD pattern after 7 day stability testing,"[3]; 40° C./75% RH, 80° C. and ambient light (all conditions)",remain pattern 1
same,Purity (%),"[3]; 40° C./75% RH, 7 day stability testing",99.9%
same,Purity (%),"[3]; 80° C., 7 day stability testing",99.9%
same,Purity (%),"[3]; Ambient, 7 day stability testing",99.9%
same,Purity (%),[3]; Input,99.9%
same,pH Post-Agitation,[4]; [12],2.45
same,pH Pre-Agitation,[4]; [12],1.94
same,pH Post-Agitation,[4]; [13],2.33
same,pH Pre-Agitation,[4]; [13],2.32
same,pH Post-Agitation,[4]; [14],2.24
same,pH Pre-Agitation,[4]; [14],1.89
same,pH Post-Agitation,[4]; Water Activity 1.0 (water),2.33
same,pH Pre-Agitation,[4]; Water Activity 1.0 (water),2.05
same,pH at 6 h,"[5]; salt in water, after agitation",2.26
same,pH at 18 h,"[5]; salt in water, after agitation",2.08
same,Initial pH,"[5]; salt in water, solubility assessment",2.22
same,solubility,"[5]; thermodynamic from solid, deionized water added to 20 mg of salt, read-out: solubility in water",~11 mg/mL
same,pH upon cooling,Water pH titration,4.76
same,concentration of the filtered sample,Water pH titration; by HPLC,1700 µg/mL
same,Initial pH,[6]; [15],4.84
same,pH 1 h,[6]; [15],4.80
same,attempt to solubilize in citrate buffer,"[6]; pH 4.75 citrate buffer, ~1.7 mg/mL (Nintedanib)",unsuccessful
same,concentration for filtered sample compared to unfiltered,[7]; listed as HCl salt,99%
same,pH,[7]; Filtered,5.36
same,pH,[7]; Unfiltered,5.28
same,Total impurities,"[8]; 25° C./60 % RH, 1 week, listed as Nintedanib HCl salt",0.41%
same,Total impurities,"[8]; 25° C./60 % RH, 2 months, listed as Nintedanib HCl salt",0.36%
same,Total impurities,"[8]; 25° C./60 % RH, 4 weeks, listed as Nintedanib HCl salt",0.36%
same,Total impurities,"[8]; 25° C./60 % RH, 6 months, listed as Nintedanib HCl salt",0.46%
same,Total impurities,"[8]; 25° C./60 % RH, Initial",0.29%
same,Weight loss,"[8]; 25° C./60 % RH, Initial, listed as Nintedanib HCl salt",0.82%
same,Polymorphic form,"[8]; 40° C./75% RH, 1 week",Pattern 1
same,Total impurities,"[8]; 40° C./75% RH, 1 week, listed as Nintedanib HCl salt",0.39%
same,Polymorphic form,[8]; [16],Pattern 1
same,Total impurities,[8]; [16],0.37%
same,Total impurities,"[8]; 40° C./75% RH, 4 weeks",0.34%
same,Polymorphic form,"[8]; 40° C./75% RH, 4 weeks, listed as Nintedanib HCl salt",Pattern 1
same,Polymorphic form,[8]; [17],Pattern 1
same,Total impurities,[8]; [17],0.52%
same,Polymorphic form,"[8]; 40° C./75% RH, Initial",Pattern 1
same,Total impurities,"[8]; 40° C./75% RH, Initial",0.29%
same,Weight loss,"[8]; 40° C./75% RH, Initial, listed as Nintedanib HCl salt",0.82%
same,visual appearance after filtration,[9]; 0.22 μm PES filter,light precipitation after 2 weeks
same,visual appearance after filtration,[9]; 0.22 μm PVDF filter,precipitated shortly after filtration
same,visual appearance after filtration,[9]; 0.22 μm nylon filter,no change in appearance through 1 month
same,Visual appearance,"[9]; PTFE filter, 1 month",Precipitation
same,Visual appearance,"[9]; PTFE filter, 1 week",Precipitation
same,Visual appearance,"[9]; PTFE filter, 2 weeks",Precipitation
same,Visual appearance,"[9]; PVFD filter, 1 month",Precipitation
same,Visual appearance,"[9]; PVFD filter, 1 week",Precipitation
same,Visual appearance,"[9]; PVFD filter, 2 weeks",Precipitation
same,Visual appearance,"[9]; PVFD filter, Initial",Precipitation
same,compatibility with NaCl,[10],not compatible
same,half-life,[11],~4 min
